Experimental data reported in US8192962B2, “Processes for detecting toxic substances” (Daikin Industries, Ltd., priority 2001, dated 2012).

System: Metabolism protein genes
Test: DNA chip mRNA expression in yeast, metabolism protein genes (Table 7)
Format: cell-based, Saccharomyces cerevisiae S288C
Method in brief: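 Expression change after 2 h toxicant exposure (growth-inhibiting, sub-lethal) of log-phase S. cerevisiae S288C at 25° C. Oligo-dT-purified mRNA was labeled with Cy3-dUTP or Cy5-dUTP and hybridized >12 h at 65° C. to a genome-wide chip; ratio of scanned fluorescence to control.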

[Cl][Cd][Cl] [(2), CdCl2]
The level of expressed mRNA in the presence of chemical substance/The level of expressed mRNA in the absence of chemical substance (yeast gene YAL012W): 6.5 | The level of expressed mRNA in the presence of chemical substance/The level of expressed mRNA in the absence of chemical substance (yeast gene YAL038W): 1.0 | level of expressed mRNA in the presence/in the absence of chemical substance (yeast gene YBR003W): 0.8 | level of expressed mRNA in the presence/in the absence of chemical substance (yeast gene YBR011C): 1.8 | level of expressed mRNA in the presence/in the absence of chemical substance (yeast gene YBR020W): 0.5 | The level of expressed mRNA in the presence of chemical substance/The level of expressed mRNA in the absence of chemical substance (yeast gene YBR023C): 0.8 | The level of expressed mRNA in the presence of chemical substance/The level of expressed mRNA in the absence of chemical substance (yeast gene YBR029C): 0.2 | The level of expressed mRNA in the presence of chemical substance/The level of expressed mRNA in the absence of chemical substance (yeast gene YBR183W): 1.5 | The level of expressed mRNA in the presence of chemical substance/The level of expressed mRNA in the absence of chemical substance (yeast gene YBR222C): 1.2 | The level of expressed mRNA in the presence of chemical substance/The level of expressed mRNA in the absence of chemical substance (yeast gene YBR256C): 1.4 | The level of expressed mRNA in the presence of chemical substance/The level of expressed mRNA in the absence of chemical substance (yeast gene YCL009C): 0.9 | The level of expressed mRNA in the presence of chemical substance/The level of expressed mRNA in the absence of chemical substance (yeast gene YCL064C): 0.6 | level of expressed mRNA in the presence/in the absence of chemical substance (yeast gene YCR010C): 1.6 | level of expressed mRNA in the presence/in the absence of chemical substance (yeast gene YCR034W): 0.4 | The level of expressed mRNA in the presence of chemical substance/The level of expressed mRNA in the absence of chemical substance (yeast gene YCR048W): 1.1 | The level of expressed mRNA in the presence of chemical substance/The level of expressed mRNA in the absence of chemical substance (yeast gene YCR098C): 3.0 | The level of expressed mRNA in the presence of chemical substance/The level of expressed mRNA in the absence of chemical substance (yeast gene YDR019C): 0.5 | level of expressed mRNA in the presence/in the absence of chemical substance (yeast gene YDR050C): 1.3 | level of expressed mRNA in the presence/in the absence of chemical substance (yeast gene YDR073W): 0.9 | level of expressed mRNA in the presence/in the absence of chemical substance (yeast gene YDR123C): 0.8 | level of expressed mRNA in the presence/in the absence of chemical substance (yeast gene YDR178W): 2.0 | level of expressed mRNA in the presence/in the absence of chemical substance (yeast gene YDR277C): 1.2 | level of expressed mRNA in the presence/in the absence of chemical substance (yeast gene YDR284C): 1.5 | level of expressed mRNA in the presence/in the absence of chemical substance (yeast gene YDR345C): 0.9 | The level of expressed mRNA in the presence of chemical substance/The level of expressed mRNA in the absence of chemical substance (yeast gene YDR380W): 0.8 | level of expressed mRNA in the presence/in the absence of chemical substance (yeast gene YDR400W): 2.0 | level of expressed mRNA in the presence/in the absence of chemical substance (yeast gene YDR408C): 1.0 | level of expressed mRNA in the presence/in the absence of chemical substance (yeast gene YDR483W): 1.0 | The level of expressed mRNA in the presence of chemical substance/The level of expressed mRNA in the absence of chemical substance (yeast gene YDR497C): 0.5 | The level of expressed mRNA in the presence of chemical substance/The level of expressed mRNA in the absence of chemical substance (yeast gene YDR502C): 2.8 | The level of expressed mRNA in the presence of chemical substance/The level of expressed mRNA in the absence of chemical substance (yeast gene YDR516C): 1.5 | level of expressed mRNA in the presence/in the absence of chemical substance (yeast gene YEL063C): 0.8 | level of expressed mRNA in the presence/in the absence of chemical substance (yeast gene YER015W): 0.9 | The level of expressed mRNA in the presence of chemical substance/The level of expressed mRNA in the absence of chemical substance (yeast gene YER026C): 0.6 | The level of expressed mRNA in the presence of chemical substance/The level of expressed mRNA in the absence of chemical substance (yeast gene YER053C): 1.8 | The level of expressed mRNA in the presence of chemical substance/The level of expressed mRNA in the absence of chemical substance (yeast gene YER069W): 0.8 | level of expressed mRNA in the presence/in the absence of chemical substance (yeast gene YER081W): 1.9 | The level of expressed mRNA in the presence of chemical substance/The level of expressed mRNA in the absence of chemical substance (yeast gene YER096W): 2.3 | level of expressed mRNA in the presence/in the absence of chemical substance (yeast gene YER120W): 1.1 | The level of expressed mRNA in the presence of chemical substance/The level of expressed mRNA in the absence of chemical substance (yeast gene YER178W): 0.9 | level of expressed mRNA in the presence/in the absence of chemical substance (yeast gene YFL011W): 0.7 | The level of expressed mRNA in the presence of chemical substance/The level of expressed mRNA in the absence of chemical substance (yeast gene YFL014W): 7.2 | The level of expressed mRNA in the presence of chemical substance/The level of expressed mRNA in the absence of chemical substance (yeast gene YFL030W): 6.0 | The level of expressed mRNA in the presence of chemical substance/The level of expressed mRNA in the absence of chemical substance (yeast gene YFL031W): 1.3 | The level of expressed mRNA in the presence of chemical substance/The level of expressed mRNA in the absence of chemical substance (yeast gene YFL056C): 2.3 | The level of expressed mRNA in the presence of chemical substance/The level of expressed mRNA in the absence of chemical substance (yeast gene YFL057C): 5.8 | The level of expressed mRNA in the presence of chemical substance/The level of expressed mRNA in the absence of chemical substance (yeast gene YFR047C): 4.0 | level of expressed mRNA in the presence/in the absence of chemical substance (yeast gene YGL012W): 0.8 | The level of expressed mRNA in the presence of chemical substance/The level of expressed mRNA in the absence of chemical substance (yeast gene YGL022W): 0.8 | level of expressed mRNA in the presence/in the absence of chemical substance (yeast gene YGL115W): 0.6 | The level of expressed mRNA in the presence of chemical substance/The level of expressed mRNA in the absence of chemical substance (yeast gene YGL126W): 1.3 | level of expressed mRNA in the presence/in the absence of chemical substance (yeast gene YGL205W): 0.9 | The level of expressed mRNA in the presence of chemical substance/The level of expressed mRNA in the absence of chemical substance (yeast gene YGL209W): 1.6 | The level of expressed mRNA in the presence of chemical substance/The level of expressed mRNA in the absence of chemical substance (yeast gene YGL248W): 1.3 | The level of expressed mRNA in the presence of chemical substance/The level of expressed mRNA in the absence of chemical substance (yeast gene YGR037C): 1.2 | The level of expressed mRNA in the presence of chemical substance/The level of expressed mRNA in the absence of chemical substance (yeast gene YGR055W): 5.7 | level of expressed mRNA in the presence/in the absence of chemical substance (yeast gene YGR096W): 1.0 | level of expressed mRNA in the presence/in the absence of chemical substance (yeast gene YGR191W): 0.7 | The level of expressed mRNA in the presence of chemical substance/The level of expressed mRNA in the absence of chemical substance (yeast gene YGR194C): 1.0 | level of expressed mRNA in the presence/in the absence of chemical substance (yeast gene YGR204W): 1.1 | The level of expressed mRNA in the presence of chemical substance/The level of expressed mRNA in the absence of chemical substance (yeast gene YGR256W): 1.5 | The level of expressed mRNA in the presence of chemical substance/The level of expressed mRNA in the absence of chemical substance (yeast gene YGR282C): 0.7 | level of expressed mRNA in the presence/in the absence of chemical substance (yeast gene YGR288W): 0.5 | level of expressed mRNA in the presence/in the absence of chemical substance (yeast gene YHR025W): 0.8 | The level of expressed mRNA in the presence of chemical substance/The level of expressed mRNA in the absence of chemical substance (yeast gene YHR111W): 1.3 | level of expressed mRNA in the presence/in the absence of chemical substance (yeast gene YHR123W): 1.2 | The level of expressed mRNA in the presence of chemical substance/The level of expressed mRNA in the absence of chemical substance (yeast gene YHR137W): 1.0 | The level of expressed mRNA in the presence of chemical substance/The level of expressed mRNA in the absence of chemical substance (yeast gene YHR174W): 1.4 | The level of expressed mRNA in the presence of chemical substance/The level of expressed mRNA in the absence of chemical substance (yeast gene YHR176W): 2.0 | level of expressed mRNA in the presence/in the absence of chemical substance (yeast gene YHR210C): 1.0 | level of expressed mRNA in the presence/in the absence of chemical substance (yeast gene YIL006W): 1.1 | The level of expressed mRNA in the presence of chemical substance/The level of expressed mRNA in the absence of chemical substance (yeast gene YIL045W): 1.4 | The level of expressed mRNA in the presence of chemical substance/The level of expressed mRNA in the absence of chemical substance (yeast gene YIL107C): 0.8 | The level of expressed mRNA in the presence of chemical substance/The level of expressed mRNA in the absence of chemical substance (yeast gene YIL154C): 1.3 | The level of expressed mRNA in the presence of chemical substance/The level of expressed mRNA in the absence of chemical substance (yeast gene YIL155C): 0.7 | The level of expressed mRNA in the presence of chemical substance/The level of expressed mRNA in the absence of chemical substance (yeast gene YIR034C): 1.1 | The level of expressed mRNA in the presence of chemical substance/The level of expressed mRNA in the absence of chemical substance (yeast gene YIR036C): 1.7 | The level of expressed mRNA in the presence of chemical substance/The level of expressed mRNA in the absence of chemical substance (yeast gene YJL031C): 1.2 | The level of expressed mRNA in the presence of chemical substance/The level of expressed mRNA in the absence of chemical substance (yeast gene YJL068C): 2.7 | The level of expressed mRNA in the presence of chemical substance/The level of expressed mRNA in the absence of chemical substance (yeast gene YJL088W): 0.8 | The level of expressed mRNA in the presence of chemical substance/The level of expressed mRNA in the absence of chemical substance (yeast gene YJL099W): 1.2 | level of expressed mRNA in the presence/in the absence of chemical substance (yeast gene YJL121C): 0.5 | level of expressed mRNA in the presence/in the absence of chemical substance (yeast gene YJL167W): 1.4 | The level of expressed mRNA in the presence of chemical substance/The level of expressed mRNA in the absence of chemical substance (yeast gene YJL172W): 2.1 | level of expressed mRNA in the presence/in the absence of chemical substance (yeast gene YJL216C): 4.7 | The level of expressed mRNA in the presence of chemical substance/The level of expressed mRNA in the absence of chemical substance (yeast gene YJL219W): 2.5 | level of expressed mRNA in the presence/in the absence of chemical substance (yeast gene YJR077C): 1.1 | The level of expressed mRNA in the presence of chemical substance/The level of expressed mRNA in the absence of chemical substance (yeast gene YJR137C): 2.9 | level of expressed mRNA in the presence/in the absence of chemical substance (yeast gene YJR143C): 0.6 | The level of expressed mRNA in the presence of chemical substance/The level of expressed mRNA in the absence of chemical substance (yeast gene YJR148W): 1.4
